Data reported in the supplement of paper PMC10307832.

compound: Cn1cnc2c(F)c(Nc3ccc(Br)cc3Cl)c(C(=O)NOCCO)cc21 [Selumetinib] + Nc1ncn([C@H]2C[C@H](O)[C@@H](CO)O2)c(=O)n1 [Decitabine] (partner 2 µM); test: relative viability (nuclei count vs DMSO), 5 days (fraction); higher = more cells survive; details: first compound 0.6325 µM
Method in brief: (§1)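 Lung cancer cell lines in 1536-well plates got either a single drug or a fixed anchor-drug dose together with five library-drug doses (not always all listed) in √10 steps, by pin tool, on the day after seeding. Nuclei were counted after 5 days, and relative viability is the treated-to-vehicle ratio of nuclei counts. Values are medians of duplicate plates.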

Cell Line | relative viability
NCI-H838 | 0.448
NCI-H1792 | 0.425
NCI-H596 | 0.83
NCI-H3122 | 0.452
NCI-H1395 | 0.639
201T | 0.824
NCI-H1993 | 0.604
HOP-62 | 0.232
NCI-H1355 | 0.329

compound: Cn1cnc2c(F)c(Nc3ccc(Br)cc3Cl)c(C(=O)NOCCO)cc21 [Selumetinib] + NC(=O)Nc1cc(-c2cccc(F)c2)sc1C(=O)N[C@H]1CCCNC1 [AZD7762] (partner 0.2 µM); test: as above; details: first compound 0.02 µM
Method in brief: as §1

Cell Line | relative viability
NCI-H1666 | 0.853
NCI-H1755 | 0.522
EPLC-272H | 0.24
LCLC-97TM1 | 0.244
PC-3 [JPC-3] | 0.656
LOU-NH91 | 0.754
NCI-H647 | 0.466
NCI-H23 | 0.265
EMC-BAC-2 | 1.16
NCI-H2126 | 1.03
HCC-44 | 1.07
NCI-H1734 | 0.512
NCI-H650 | 1.37
LK-2 | 0.474
HARA | 0.38
LC-2-ad | 0.687
LXF-289 | 0.958
ChaGo-K-1 | 0.865
NCI-H2170 | 0.874

Cell Line | relative viability
NCI-H322M | 0.453
HCC-78 | 0.576
BEN | 0.587
HCC-15 | 0.996
HCC-827 | 0.2
NCI-H460 | 0.695
LU99A | 0.461
NCI-H2085 | 0.914
A-427 | 0.7
NCI-H838 | 0.87
NCI-H1792 | 0.571
NCI-H596 | 1.06
NCI-H3122 | 0.886
NCI-H1395 | 0.389
201T | 0.602
NCI-H1993 | 0.842
HOP-62 | 0.591
NCI-H1355 | 0.818

same assay, conditions: first compound 0.06325 µM

Cell Line | relative viability
NCI-H1666 | 0.758
NCI-H1755 | 0.352
EPLC-272H | 0.19
LCLC-97TM1 | 0.179
PC-3 [JPC-3] | 0.676
LOU-NH91 | 0.758
NCI-H647 | 0.441
NCI-H23 | 0.315
EMC-BAC-2 | 1.11
NCI-H2126 | 0.981
HCC-44 | 1.08
NCI-H1734 | 0.5
NCI-H650 | 1.14
LK-2 | 0.425
HARA | 0.34
LC-2-ad | 0.633
LXF-289 | 0.887
ChaGo-K-1 | 0.845
NCI-H2170 | 0.88

Cell Line | relative viability
NCI-H322M | 0.443
HCC-78 | 0.581
BEN | 0.624
HCC-15 | 0.808
HCC-827 | 0.195
NCI-H460 | 0.663
LU99A | 0.367
NCI-H2085 | 0.906
A-427 | 0.613
NCI-H838 | 0.844
NCI-H1792 | 0.447
NCI-H596 | 1.14
NCI-H3122 | 0.808
NCI-H1395 | 0.38
201T | 0.615
NCI-H1993 | 0.733
HOP-62 | 0.542
NCI-H1355 | 0.711

same assay, conditions: first compound 0.2 µM

Cell Line | relative viability
NCI-H1666 | 0.759
NCI-H1755 | 0.393
EPLC-272H | 0.281
LCLC-97TM1 | 0.219
PC-3 [JPC-3] | 0.57
LOU-NH91 | 0.696
NCI-H647 | 0.366
NCI-H23 | 0.222
EMC-BAC-2 | 0.913
NCI-H2126 | 0.987
HCC-44 | 1.02
NCI-H1734 | 0.495
NCI-H650 | 1.06
LK-2 | 0.502
HARA | 0.341
LC-2-ad | 0.572
LXF-289 | 0.829
ChaGo-K-1 | 0.905
NCI-H2170 | 0.711

Cell Line | relative viability
NCI-H322M | 0.45
HCC-78 | 0.526
BEN | 0.634
HCC-15 | 1.01
HCC-827 | 0.194
NCI-H460 | 0.598
LU99A | 0.397
NCI-H2085 | 0.864
A-427 | 0.628
NCI-H838 | 0.878
NCI-H1792 | 0.417
NCI-H596 | 1.02
NCI-H3122 | 0.785
NCI-H1395 | 0.391
201T | 0.554
NCI-H1993 | 0.634
HOP-62 | 0.5
NCI-H1355 | 0.748

same assay, conditions: first compound 0.6325 µM

Cell Line | relative viability
NCI-H1666 | 0.732
NCI-H1755 | 0.451
EPLC-272H | 0.476
LCLC-97TM1 | 0.136
PC-3 [JPC-3] | 0.678
LOU-NH91 | 0.733
NCI-H647 | 0.271
NCI-H23 | 0.195
EMC-BAC-2 | 1.08
NCI-H2126 | 0.903
HCC-44 | 1.16
NCI-H1734 | 0.515
NCI-H650 | 1.15
LK-2 | 0.243
HARA | 0.152
LC-2-ad | 0.477
LXF-289 | 0.85
ChaGo-K-1 | 0.899
NCI-H2170 | 0.838

Cell Line | relative viability
NCI-H322M | 0.527
HCC-78 | 0.477
BEN | 0.736
HCC-15 | 0.631
HCC-827 | 0.209
NCI-H460 | 0.662
LU99A | 0.342
NCI-H2085 | 0.722
A-427 | 0.618
NCI-H838 | 0.824
NCI-H1792 | 0.393
NCI-H596 | 0.768
NCI-H3122 | 0.552
NCI-H1395 | 0.355
201T | 0.6
NCI-H1993 | 0.666
HOP-62 | 0.241
NCI-H1355 | 0.565
